Results on one compound are retold here after article PMC10464297, “Reevaluation of bromodomain ligands targeting BAZ2A” (Protein Science : A Publication of the Protein Society, 2023).

The target of one data set is TAF1L. The settings on record: ref Chen et al., [2016]; read-out: K D TAF1L; cited from earlier work.
In the next data set the test system is BAZ2A. The note with it: ref Chen et al., [2016]; cited from earlier work.
Data set [1] concerns 22Rv1 (AR‐positive) PCa cells. Put plainly: 2D proliferation assay (resazurin), 22Rv1. It counts as cell-based. How it is done:
(§1) Cell cultures, proliferation assay and spheroid gro wth
PC3 and 22Rv1 cells were cultured in RPMI 1640 medium containing 10% FBS, 1% penicillin-streptomycin and 2 m M L-glutamine. All cells were regularly tested for mycoplasma contamination.
For the proliferation assay, cells were counted with a hemocytometer and seeded in triplicates in 96-well plates (4 .5x10^3 cells/well for 22Rv1 and 2.0x103 for PC3) and let adhere overnight at 37°C, 5% CO2. The following day, the medium was replaced with RPMI 1640 containing either the carrier […]
(§2) transfected with siRNA for BAZ2A , RLUC or KIF11, as detailed below. The cells were incubated for 1, 3, 6 (PC3) and 9 days (22Rv1) and the medium containing either the carrier or the inhibitors was replaced every 3 day s. Cell proliferation and viability were determined at day 1, 3, 6 and 9 by adding 10% resazurin sodium salt solution (0. 03 mg/ml powder from Sigma -Aldrich) directly into each well and incubating them for 4h at 37°C, 5% CO 2. The absorbance at 570/600 nm was measured using a Varioskan plate reader. The reduction of the resazur in sodium salt was calculated using the formula: (Abs x – Abs 0. 1%DMSO day1)/(Abs 0. 1%DMSO day9 - Abs 0. 1%DMSO day1). The growth rate was analysed using the linear regression algorithm of GraphPad Prism. […]

A further data set has as its system PC3 spheroids. Kind of data set: Spheroid growth (3D), PC3. Format: cell-based. How it is done: (§3) Cell cultures, proliferation assay and spheroid gro wth […]
streptomycin and 2 m M L-glutamine. All cells were regularly tested for mycoplasma contamination. […]
Spheroids were obtained by plating PC3 and 22Rv1 cells in low -adhesion round bottom 96 -well […]
(§4) After seeding, the cells were centrifuged for 10 min at 1200 x g at 4°C. Spheroids were given 48 hours to form after seeding before adding the treatment or the carrier (0.1% DMSO). Medium supplemented with treatment/carrier was changed every 48 hours, for a total of 32 days for 22Rv1 and 16 days for PC3. Each spheroid was imaged in brightfield every day or every other day (after day 20), using a Leica DM IL microscope […]
(§5) equipped with a Leica DFC450C digital camera. The area of each spheroid was measured using ImageJ and the average area for each condition was calculated. The growth rate was analysed using the segmental linear regression algorithm of GraphPad Prism. The appropriateness of the model was evaluated by considering the R square values and the Replicates test (Suppl. Table 6). […]

For another data set, the system named is melatonin receptor. Further details: method as in https://www.thesgc.org/chemical-probes/GSK2801. The settings on record: panel of receptors, channels and transporters; ref https://www.thesgc.org/chemical-probes/GSK2801; cited from earlier work.
Another data set has as its system TNBC cells. Also on record: method as in Bevill et al., [2019]. The note with it: single agent; ref Bevill et al., [2019]; cited from earlier work.
For data set [2], the system named is PC3 (AR‐negative) PCa cells. Put plainly: 2D proliferation assay (resazurin), PC3. Format: cell-based. Here is the method: as §3
streptomycin and 2 m M L-glutamine. All cells were regularly tested for mycoplasma contamination.
For the proliferation assay, cells were counted with a hemocytometer and seeded in triplicates in 96-well plates (4 .5x10^3 cells/well for 22Rv1 and 2.0x103 for PC3) and let adhere overnight at 37°C, […]
as §2

A further data set concerns 22Rv1 spheroids. Kind of data set: Spheroid growth (3D), 22Rv1. It counts as cell-based. Here is the method: as §1
PC3 and 22Rv1 cells were cultured in RPMI 1640 medium containing 10% FBS, 1% penicillin-streptomycin and 2 m M L-glutamine. All cells were regularly tested for mycoplasma contamination. […]
as §4, with “Spheroids were obtained by plating PC3 and 22Rv1 cells in low -adhesion round bottom 96 -well plates. For 22Rv1, 2500 cells/well were seeded in 200 µl RPMI 1640; for PC3, 250 cells/well were seeded in 200 µl RPMI 1640 supplemented with 1.5% Matrigel. After” for “After”
as §5

In another data set the target is BRD9. The settings on record: ref Chen et al., [2016]; read-out: K D BRD9; cited from earlier work.
Setting [3] is: 3D setting, GSK2801 25 μM, BAZ2‐ICR 25 μM, BI9564 20 μM.

Entries after “also recorded” stand apart in the source; their conditions may differ.

Consider `CCCOc1ccn2c(C(C)=O)cc(-c3ccccc3S(C)(=O)=O)c2c1` [GSK2801], for which the results for the Kd at TAF1L and on BRD9 were 3.2 µM and 1200 nM, respectively. For the same compound, the IC50 in the data set on BAZ2A is […]. For the same compound, the “effect on 2D growth of 22Rv1 cells” value in data set [1] (2D‐cell culture, 22Rv1) is “significantly reduced growth rate at the highest concentrations tested; also recorded: reduces 2D growth”. Also, in data set [1] (2D‐cell culture, 22Rv1), the “effect on viability of 22Rv1 cells” value is listed as “without affecting viability”. The “Slope (best-fit, linear regression of growth curve)” value is 0,1090 in [1] (22Rv1, 0.5 µM); 0,1514 in data set [2] (PC3, 0.5 µM); 0,1455 in data set [2] (PC3, 2.5 µM); 0,1396 in data set [2] (PC3, 5 µM); 0,1068 in data set [2] (PC3, 10 µM); 0,08390 in data set [2] (PC3, 25 µM). Besides, in the data set with PC3 spheroids (setting [3]), the “effect on growth of PC3 spheroids” value is “only GSK2801 is effective on PC3 cells; also recorded: slowed PC3 and 22Rv1 cellular growth”. Moreover, the “slope2 (segmental linear regression of spheroid growth)” value in the data set with PC3 spheroids (PC3 spheroids, 25 µM, after X0 = day 6) is given as 19191; in the data set with 22Rv1 spheroids (22Rv1 spheroids, 25 µM, after X0 = day 9), 13213. In addition, the “slope1 (segmental linear regression of spheroid growth)” value with PC3 spheroids (PC3 spheroids, 25 µM, before X0 = day 6) was 5023; with 22Rv1 spheroids (22Rv1 spheroids, 25 µM, before X0 = day 9) it was 13070. In addition, the “interference with melatonin receptor” value in the data set with melatonin receptor is recorded as “strongly interferes”. In addition, the “effect on TNBC cells” value in the data set with TNBC cells is on record as “did not affect TNBC cells”. Moreover, the “effect on 2D growth of PC3 cells” value in [2] (2D‐cell culture, PC3) is reported as “significantly reduced growth rate at the highest concentrations tested; also recorded: reduces 2D growth”. In addition, in [2] (2D‐cell culture, PC3), the “effect on viability of PC3 cells” value was “without affecting viability”. Besides, the “effect on growth of 22Rv1 spheroids” value in the data set on 22Rv1 spheroids (setting [3]) was “similarly affect the growth of 22Rv1 cells; also recorded: slowed PC3 and 22Rv1 cellular growth”.
